Data on 17 molecules can be found in US5457106A, “Pyridine derivatives, their production and use” (Takeda Chemical Industries, Ltd., priority 1991, dated 1995).

Counter-ions that a name gives are not always drawn. Like-named read-outs stand apart in the source and are kept apart here.

For experiment [1], the system named is ICAM-1. Kind of experiment: Adhesion protein expression inhibitory activity, ICAM-1. The class given is cell-based. The protocol: (§1) Adhesion Protein Expression Inhibitory Activity The various concentrations of test compounds were added to the human umbilical cord-derived vascular endothelial cells [sold by Klabo] which were seeded in the gelatin coat plate and the mixture was incubated at 37° C. for 15 minutes. Then, the human tumor necrosis factor-α[TNF-α; sold by Genzyme] was added therein to the final concentration of 1 ng/ml and incubation was carried out at 37° C. for 3 hours for expression of ELAM-1 and for 6 hours for that of ICAM-I. After the reaction, the cells were fixed using glutaraldhyde and the expression amount of ELAM-1 and ICAM-1 was measured by the cell-ELISA method. That is, the expression was determined by […] the adhesion proteins on the cells in the system using anti-ELAM-1 antibody BBA-2 and anti-ICAM-1 antibody BBA4 as the first antibody as well as horseradish peroxidase-labeled rabbit anti-mouse IgG antibody as the second antibody.

The target of experiment [2] is T1, cyclooxygenase (Rattus norvegicus, UniProt Q63921).
T1 construct: from tissue; host or cells: platelets in platelet-rich plasma from rat abdominal aorta blood (Jcl:wistar, male)
T1 sequence (Q63921 27-602): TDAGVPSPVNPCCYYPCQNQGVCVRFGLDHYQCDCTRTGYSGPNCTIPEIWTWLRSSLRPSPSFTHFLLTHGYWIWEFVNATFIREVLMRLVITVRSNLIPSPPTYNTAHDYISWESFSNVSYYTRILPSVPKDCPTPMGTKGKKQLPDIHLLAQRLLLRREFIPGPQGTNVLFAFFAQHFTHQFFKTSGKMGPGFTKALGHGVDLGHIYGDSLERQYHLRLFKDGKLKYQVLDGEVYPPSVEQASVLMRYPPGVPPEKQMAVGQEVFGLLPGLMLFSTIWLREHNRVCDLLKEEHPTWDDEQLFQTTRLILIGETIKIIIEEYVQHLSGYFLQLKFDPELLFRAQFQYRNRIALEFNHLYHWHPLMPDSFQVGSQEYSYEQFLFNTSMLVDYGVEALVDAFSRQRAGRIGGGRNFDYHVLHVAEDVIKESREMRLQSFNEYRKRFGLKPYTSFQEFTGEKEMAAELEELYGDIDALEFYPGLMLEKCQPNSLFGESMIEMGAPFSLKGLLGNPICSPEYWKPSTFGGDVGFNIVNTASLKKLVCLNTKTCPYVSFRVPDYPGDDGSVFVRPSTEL
Kind of experiment: Cyclooxygenase inhibitory activity (HHT formation from arachidonic acid in rat platelet-rich plasma). The experiment is classed as cell-based, rat (Jcl:wistar).

Experiment [3] concerns ART (antigen-responding T-cell). Kind of experiment: In vitro ART (antigen-responding T-cell) proliferation test. The experiment is classed as cell-based, Lewis rat. Particulars: Rattus norvegicus, T-cell, read-out: % Inhibition of ART growth.
The target in experiment [4] is T2, 5-Lipoxygenase (Rattus norvegicus, UniProt P12527).
T2 construct: rat basophilic leukemia cell suspension; endogenous in cells
T2 sequence (P12527 1-673): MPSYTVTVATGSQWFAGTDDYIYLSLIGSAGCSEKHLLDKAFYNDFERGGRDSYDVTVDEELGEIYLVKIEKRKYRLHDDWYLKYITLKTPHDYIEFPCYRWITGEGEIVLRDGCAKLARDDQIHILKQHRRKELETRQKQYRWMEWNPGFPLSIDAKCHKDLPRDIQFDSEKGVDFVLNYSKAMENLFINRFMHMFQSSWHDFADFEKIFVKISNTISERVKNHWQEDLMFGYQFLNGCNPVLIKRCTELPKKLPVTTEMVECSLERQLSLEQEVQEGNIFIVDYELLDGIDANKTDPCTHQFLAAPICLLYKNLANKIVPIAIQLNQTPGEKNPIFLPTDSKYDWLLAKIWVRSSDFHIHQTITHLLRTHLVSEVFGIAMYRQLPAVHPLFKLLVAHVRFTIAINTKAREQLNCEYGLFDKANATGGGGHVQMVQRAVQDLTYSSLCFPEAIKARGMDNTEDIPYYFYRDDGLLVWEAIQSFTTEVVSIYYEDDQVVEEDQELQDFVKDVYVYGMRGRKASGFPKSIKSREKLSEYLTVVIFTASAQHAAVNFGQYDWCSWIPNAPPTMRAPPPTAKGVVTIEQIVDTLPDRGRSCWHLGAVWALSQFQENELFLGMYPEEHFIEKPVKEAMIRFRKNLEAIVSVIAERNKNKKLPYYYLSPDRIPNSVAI
Kind of experiment: 5-Lipoxygenase inhibitory activity in rat basophilic leukemia cells. The experiment is classed as cell-based. The protocol:
5-Lipoxygenase Inhibitory Activity […] Then, 0.1 ml of mast cell medium containing 50 μg of arachidonic acid and 1 μg of calcium ionophore (A-23187) were added and the mixture was allowed to stand at 37° C. for 15 minutes. Ethanol (1 ml) was added thereto and the mixture was shaken well, and filtered (Membrane filter, 0.45 μm). […] As a control, the measurement was carried out according to the same manner except that 0.01 ml of the solvent used for dissolving the test compound was used in place of the test compound. The inhibitory percentage (%) was calculated from the following equation to obtain IC50.

The test system of experiment [5] is brewer's yeast induced pyrexia. Kind of experiment: Antipyretic activity (brewer's yeast induced pyrexia). The class given is in vivo, rat (DS line). Particulars: 50 mg/kg, orally. The procedure, abridged:
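Male DS rats (7 weeks, 200-240 g) made febrile by s.c. 15% brewer's yeast 18 h before dosing; only animals at ≥38.5° C used. Compound given orally versus solvent control, with rectal temperature taken by thermistor hourly for 5 h post-dose.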

For experiment [6], the system named is Rat carrageenin pedal edema. Kind of experiment: Rat carrageenin pedal edema inhibitory activity. The experiment is classed as in vivo, rat (Jcl: SD). Particulars: Rattus norvegicus, po, 3 h, 50 mg/kg, orally, 3 hours after carrageenin; read-out: Inhibitory percentage (carrageenin pedal edema). The procedure, abridged: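 Male Jcl:SD rats (6 weeks, 160-220 g) received test compound orally as a 5% gum arabic suspension, topped up with water to 5 ml/rat. One hour later 0.05 ml of 1% carrageenin was injected subcutaneously into the right hind foot pad. Edema volume was the foot volume increase 3 hours post-injection.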
For orientation: The carrageenan paw model is a standard test of acute inflammation.

Experiment [7] deals with Mouse acetic acid writhing. Kind of experiment: Mouse acetic acid writhing inhibitory activity. The class given is in vivo, mouse (Slc: ICR). Particulars: orally; for inhibition in vivo at 50 mg/kg: Mus musculus, po, 20 min, read-out: Inhibitory percentage (acetic acid writhing); for Inhibitory percentage (acetic acid writhing): 50 mg/kg, hydrochloride. The protocol:
Mouse Acetic Acid Writhing Inhibitory Activity
Ten male Slc: ICR mice, 4 weeks old, per 1 group were used. A test compound was administered orally, and after 30 minutes, 0.1 ml/10 g body weight of physiological saline containing 0.6% acetic acid was injected intraperitoneally. For 20 minutes, writhing (in agony condition) response by administration of acetic acid was counted regarding individual animals. The inhibitory percentage relative to the mean response counts of a control group was calculated regarding respective animals in a test compound administration group. The test compound was suspended in 5% gum arabic solution, and the administration volume was 0.2 ml/10 g.
A general note: In writhing tests, fewer writhes than in controls are read as antinociception.

The test system of experiment [8] is ELAM-1. Kind of experiment: Adhesion protein expression inhibitory activity, ELAM-1. The experiment is classed as cell-based. As for the experimental part:
as §1

Experiment [9] concerns Mouse phenylquinone writhing. Kind of experiment: Mouse phenylquinone writhing inhibitory activity. The class given is in vivo, mouse (Slc: ICR). Particulars: Mus musculus, po, 20 min, 50 mg/kg, orally; read-out: Inhibitory percentage (phenylquinone writhing). The procedure, abridged: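 Male ICR mice (4 weeks, 17–24 g) dosed orally with compound suspended in 5% gum arabic. After 30 min, 0.02% phenylquinone (0.1 ml/10 g) given i.p.; writhing and stretching responses counted over 20 min.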

Where [10] appears, read: 30 μM, human umbilical vascular endothelial cells, TNF-α; 360 min.
Setting [11] is: 5-HETE, read-out: 5-Lipoxygenase inhibitory activity, 5-HETE IC50.
Setting [12] is: LTB4, read-out: 5-Lipoxygenase inhibitory activity, LTB4 IC50.
The mark [13] stands for this setting: 10 μM, human umbilical vascular endothelial cells, TNF-α; 180 min.

Regarding `O=C(NCCSc1ccncc1)c1cc2ccccc2s1` [Example 123, 4-[2-(thianaphthene-2-carbonylamino)ethylthio]pyridine], the “Expression Inhibitory Potency, ICAM-1” value in [1] (setting [10]) was found to be 34%. In addition, the IC50 (as a rule, the concentration that gives 50% inhibition) in experiment [2] is 3300 nM. In [3], the inhibition – broadly, the drop in the measured response relative to a control, in per cent – at 1 µM was 15% and the inhibition at 10 µM turned out to be 66%.
With `O=c1c2ccccc2n(CCCCSc2ccccn2)c(=O)n1CCCCSc1ccccn1` [Example 198, 1,3-bis[4-(2-pyridylthio)butyl]quinazoline-2,4(1H,3H)-dione], in [1] (13 μM, human umbilical vascular endothelial cells, TNF-α; 360 min), the “Expression Inhibitory Potency, ICAM-1” value is listed as 25%.
Regarding `O=C1SC(=Cc2ccc(Cl)cc2)C(=O)N1CCCCSc1ccncc1` [Example 151, 4-[4-[5-(4-chlorobenzylidene)-2,4-thiazolidinedione]butylthio]pyridine], the “Expression Inhibitory Potency, ICAM-1” value in experiment [1] (setting [10]) turned out to be 60%. Also, the inhibition at 1 µM in experiment [3] was -1%. Also, in experiment [3], the inhibition at 10 µM amounted to 74%. In addition, the values for the IC50 in [4] (setting [11]) and in experiment [4] (setting [12]) were 1800 nM and 1100 nM, respectively.
The molecule `O=C(NCCCSc1ccncc1)c1cnccn1` [Example 124, 4-[3-(2-pyrazinecarbonylamino)propylthio]pyridine] had an IC50 in [2] of 5500 nM. Further, in experiment [5], the “Antipyretic activity, peak time” value is given as 2 h. The “Antipyretic activity, .increment. °C.” value in experiment [5] (at peak time) was -1.52 °C. For the same molecule, the inhibition in vivo at 50 mg/kg was 51% in [6] and 69% in [7].
Consider `O=C1c2ccccc2S(=O)(=O)N1CSc1ccncc1` [Example 172, 4-saccharinmethylthiopyridine], for which, in experiment [1] (13 μM, human umbilical vascular endothelial cells, TNF-α, 360 min), the “Expression Inhibitory Potency, ICAM-1” value is reported as 34%. Moreover, in experiment [8] (13 μM, human umbilical vascular endothelial cells, TNF-α, 180 min), the “Expression Inhibitory Potency, ELAM-1” value was 31%. Moreover, in experiment [6], the inhibition in vivo at 50 mg/kg came out at 19%.
For `CC1(C)OC(=O)N(CSc2ccncc2)C1=O` [Example 179, 4-(5,5-dimethyloxazolidine-2,4-dionemethylthio)pyridine hydrochloride], the “Inhibitory percentage (acetic acid writhing)” value in experiment [7] was found to be 66%.
As for `O=c1[nH]c2ccccc2c(=O)n1CCCCSc1ccncc1` [Example 146, 3-[4-(4-pyridylthio)butyl]quinazolin-2,4(1H,3H)-dione], the “Expression Inhibitory Potency, ELAM-1” value in experiment [8] (13 μM, human umbilical vascular endothelial cells, TNF-α; 180 min) turned out to be 33%. For the same molecule, the IC50 in experiment [2] was 5100 nM. Besides, in [3], the inhibition at 1 µM was found to be 22% and the inhibition at 10 µM came to 20%.
Consider `O=C1SC(=Cc2ccncc2)C(=O)N1CCCCSc1ccncc1` [Example 184, 4-[4-[5-(4-pyridyl)methylene-2,4-thiazolidinedione]butylthio]pyridine], for which, in [8] (setting [13]), the “Expression Inhibitory Potency, ELAM-1” value was found to be 47%.
Regarding `O=C(c1cc2ccccc2s1)N1CCC(Sc2ccncc2)CC1` [Example 133, 4-[4-(thianaphthene-2-carbonyl)piperidylthio]pyridine], the results for the IC50 in experiment [4] (setting [11]) and in [4] (setting [12]) were 4600 nM and 4300 nM, respectively. In experiment [6], the inhibition in vivo at 50 mg/kg turned out to be 27%.
Take `O=C1C(=Cc2ccccc2)SC(=S)N1CCCCSc1ccncc1` [Example 153, 4-[4-(5-benzylidenerhodanine)butylthio]pyridine]: in experiment [3], the inhibition at 1 µM is -20% and the inhibition at 10 µM came out at 75%. Also, in [4] (setting [11]), the IC50 is 1300 nM. Further, the IC50 in experiment [4] (setting [12]) was 790 nM. For the same molecule, the inhibition in vivo at 50 mg/kg in [7] is 49%.
Take `O=C1c2ccccc2S(=O)(=O)N1CSc1ccncc1` [Example 180, 4-(saccharinmethylthio)pyridine hydrochloride]: the “Expression Inhibitory Potency, ICAM-1” value in experiment [1] (13 μM, human umbilical vascular endothelial cells, TNF-α, 360 min, hydrochloride) came out at 35%. The “Expression Inhibitory Potency, ELAM-1” value in experiment [8] (13 μM, human umbilical vascular endothelial cells, TNF-α, 180 min, hydrochloride) is reported as 29%.
Turning to `O=C1c2ccccc2CN1CCCCSc1ccncc1` [Example 109, 4-[4-(isoindolin-1-on-2-yl)butylthio]pyridine], the IC50 in [2] was 6200 nM; in [4] (setting [11]), 1400 nM; in experiment [4] (setting [12]), 1200 nM. In experiment [3], the inhibition at 1 µM is -11%. In experiment [3], the inhibition at 10 µM was -33%. For the same molecule, the inhibition in vivo at 50 mg/kg in [9] turned out to be 89%; in experiment [6], 25%.
On to `CC1(C)OC(=O)N(CCCCSc2ccncc2)C1=O` [Example 167, 4-(4-(5,5-dimethyloxazolidine-2,4-dione)butylthio]pyridine], for which the inhibition in vivo at 50 mg/kg in experiment [7] is 62%.
Take `O=C1CSC(=O)N1CSc1ccncc1` [Example 176, 4-(2,4-thiazolidinedionemethylthio)pyridine hydrochloride]: the “Inhibitory percentage (acetic acid writhing)” value in experiment [7] was determined as 87%.
With `CCCCCCCCCC=C1SC(=O)N(CCCCSc2ccncc2)C1=O` [Example 187, 4-[4-(5-nonylmethylene-2,4-thiazolidinedione)butylthio]pyridine hydrochloride], the “Expression Inhibitory Potency, ICAM-1” value in experiment [1] (10 μM, human umbilical vascular endothelial cells, TNF-α; 360 min) was determined as 79%. Further, in experiment [8] (setting [13]), the “Expression Inhibitory Potency, ELAM-1” value was 53%.
Take `O=c1c2ccccc2oc(=S)n1CCSc1ccncc1` [Example 170, 4-[2-[2H-1,3-benzoxadine-2-thion-4(3H)-on]ethylthio]pyridine]: in experiment [7], the inhibition in vivo at 50 mg/kg is 91%.
As for `O=C1SC(=Cc2cccnc2)C(=O)N1CCCCSc1ccncc1` [Example 185, 4-[4-[5-(3-pyridyl)methylene-2,4-thiazolidinedione]butylthio]pyridine], the “Expression Inhibitory Potency, ELAM-1” value in [8] (setting [13]) worked out at 33%.
